# Where a name gives a salt, the structure may show the parent alone.
# Legend:
# Type in all cases: physicochemical
# [1] = solubility in various solvents; conditions: organic solvent or mixture
# Protocol: (§1) The aqueous solubility of the anhydrous succinate salt has been measured under various conditions: >10 mg/mL in pH 4 buffer; >10 mg/mL in pH 10 buffer; >10 mg/mL in 0.1 N HCl; and >10 mg/mL in 0.1 N NaOH. The solubility of the anhydrous succinate salt has also been measured in various solvents: >10 mg/mL in methanol; 0.1 mg/mL in acetonitrile and <0.01 mg/mL in hexane. The hygroscopicity of the anhydrous succinate salt has also been measured under various conditions: 0.0% moisture gain at 20% Relative Humidity; 0.3% moisture gain at 40% Relative Humidity; 0.6% moisture gain at 60% Relative Humidity; 0.9% moisture gain at 80% Relative Humidity and 1.3% moisture gain at 95% Relative Humidity.
# [2] = native pH in aqueous solution
# aqueous solubility = experiment: aqueous solubility
# Protocol: (§2) Although in general the acid addition salts of 5,8,14-triazatetracyclo[10.3.1.0^2,11.0^4,9]-hexadeca-2(11),3,5,7,9-pentaene are all crystalline, the majority of those salts are so hygroscopic as to render them poor candidates for pharmaceutical formulation use.
# as §1
# [3] = hygroscopicity (moisture gain on exposure to relative humidity in a moisture chamber)
# Protocol: as §2, §1
# [4] = solid state stability (light, elevated temperature, high humidity challenges); conditions: elevated temperatures
# Source text: as §2
structure (smiles),measurement,setting,value
"c1cnc2cc3c(cc2n1)C1CNCC3C1 [anhydrous succinate salt, Anhydrous Succinate Salt of 5,8,14-Triazatetracyclo[10.3.1.0^2,11.0^4,9]-hexadeca-2(11),3,5,7,9-pentaene]",solubility,[1]; in acetonitrile,100 µg/mL
same,solubility,[1]; in hexane,< 10 µg/mL
same,solubility,[1]; in methanol,> 10000 µg/mL
same,native pH in aqueous solution,[2],4.7
same,solubility,"aqueous solubility; aqueous buffer, in 0.1 N NaOH",> 10000 µg/mL
same,solubility,"aqueous solubility; aqueous buffer, in pH 4 buffer",> 10000 µg/mL
same,solubility,"aqueous solubility; aqueous buffer, in pH 10 buffer",> 10000 µg/mL
same,solubility,"aqueous solubility; simulated gastric fluid, in 0.1 N HCl",> 10000 µg/mL
same,solubility,aqueous solubility; water,442000 µg/mL
same,"hygroscopicity, moisture gain",[3]; at 20% Relative Humidity,0.0%
same,"hygroscopicity, moisture gain",[3]; at 40% Relative Humidity,0.3%
same,"hygroscopicity, moisture gain",[3]; at 60% Relative Humidity,0.6%
same,"hygroscopicity, moisture gain",[3]; at 80% Relative Humidity,0.9%
same,hygroscopicity,[3]; at 90% relative humidity,approximately 1.97%
same,"hygroscopicity, moisture gain",[3]; at 95% Relative Humidity,1.3%
same,hygroscopicity,[3]; exposure to 90% relative humidity in a moisture chamber,approximately 1.97 % wt/wt
same,solid state stability,[4],excellent solid state stability
